According to patent publication US12024510B2, “Pyrazolopyridine-diamides, their use as insecticide and processes for preparing the same” (PI INDUSTRIES LTD., priority 2017, dated 2024):

Key:
Assay type in all cases: in vivo
Plutella xylostella = experiment: whole plant or invertebrate; conditions: foliar, cabbage leaf dip, second instar larvae, dead and moribund combined, 72 h after release
Outline: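 Compounds milled with zirconia beads into surfactant dispersion (500 ppm stock), diluted in 0.01% Triton-X. Cabbage leaves dipped 10 s, shade-dried 20 min; one second-instar larva per cell, 25 °C, 70% RH. Mortality (dead plus moribund) scored at 72 h.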

Spodoptera litura = Spodoptera litura diet incorporation method; conditions: third instar larvae, dead and moribund combined, 96 h after release
Outline: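 Compound milled to <2 μm average particle size in surfactant, dispersed in water (500 ppm stock dispersion), then mixed into semi-synthetic diet at ~50° C. One starved third-instar larva per diet cell, 25° C, 70% RH; percent mortality (dead plus moribund) scored at 96 h.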

Helicoverpa armigera = Helicoverpa armigera diet incorporation method; conditions: third instar larvae, dead and moribund combined, 96 h after release
Outline: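 500 ppm stock of compound milled with surfactant and zirconia beads to average particle size below 2 μm, dispersed in DM water, diluted as needed, and mixed into semi-synthetic diet at about 50° C. Single starved third-instar larvae per cell, held at 25° C., 70% RH; dead plus moribund larvae scored as percent mortality at 96 h.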

Measured: mortality at 300 ppm

CCCNC(=O)c1c(NC(=O)c2cc(Br)nn2-c2ncccc2Cl)c(Cl)cc2ccnn12 [Compound 151, 6-(3-bromo-1-(3-chloropyridin-2-yl)-1H-pyrazole-5-carboxamido)-5-chloro-N-propylpyrazolo[1,5-a]pyridine-7-carboxamide]
> 70%: all assays above

CONC(=O)c1c(NC(=O)c2cc(OCC(F)(F)F)nn2-c2ncccc2Cl)c(C)cc2ccnn12 [Compound 16, 6-(1-(3-chloropyridin-2-yl)-3-(2,2,2-trifluoroethoxy)-1H-pyrazole-5-carboxamido)-N-methoxy-5-methylpyrazolo[1,5-a]pyridine-7-carboxamide]
> 70%: all assays above

Cc1cc2ccnn2c(C(=O)NCC2CC2)c1NC(=O)c1cc(C(F)(F)F)nn1-c1ncccc1Cl [Compound 62, 6-(1-(3-chloropyridin-2-yl)-3-(trifluoromethyl)-1H-pyrazole-5-carboxamido)-N-(cyclopropylmethyl)-5-methylpyrazolo[1,5-a]pyridine-7-carboxamide]
> 70%: all assays above

CCNC(=O)c1c(NC(=O)c2cc(Br)nn2-c2ncccc2Cl)c(Br)cc2ccnn12 [Compound 76, 5-bromo-6-(3-bromo-1-(3-chloropyridin-2-yl)-1H-pyrazole-5-carboxamido)-N-ethylpyrazolo[1,5-a]pyridine-7-carboxamide]
> 70%: all assays above

COc1cc(C(=O)Nc2c(Cl)cc3ccnn3c2C(=O)NC2CC2)n(-c2ncccc2Cl)n1 [Compound 132, 5-chloro-6-(1-(3-chloropyridin-2-yl)-3-methoxy-1H-pyrazole-5-carboxamido)-N-cyclopropylpyrazolo[1,5-a]pyridine-7-carboxamide]
> 70%: all assays above

CNC(=O)c1c(NC(=O)c2cc(OC)nn2-c2ncccc2Cl)c(C)cc2ccnn12 [Compound 25, 6-(1-(3-chloropyridin-2-yl)-3-methoxy-1H-pyrazole-5-carboxamido)-N,5-dimethylpyrazolo[1,5-a]pyridine-7-carboxamide]
> 70%: all assays above

Cc1cc2ccnn2c(C(=O)NC2CC2)c1NC(=O)c1cc(OCC(F)(F)F)nn1-c1ncccc1Cl [Compound 13, 6-(1-(3-chloropyridin-2-yl)-3-(2,2,2-trifluoroethoxy)-1H-pyrazole-5-carboxamido)-N-cyclopropyl-5-methylpyrazolo[1,5-a]pyridine-7-carboxamide]
> 70%: all assays above

CNC(=O)c1c(NC(=O)c2cc(Cn3nnc(C(F)(F)F)n3)nn2-c2ncccc2Cl)c(Cl)cc2ccnn12 [Compound 153, 5-chloro-6-(1-(3-chloropyridin-2-yl)-3-((5-(trifluoromethyl)-2H-tetrazol-2-yl)methyl)-1H-pyrazole-5-carboxamido)-N-methylpyrazolo[1,5-a]pyridine-7-carboxamide]
> 70%: all assays above

CCNC(=O)c1c(NC(=O)c2cc(Cn3nnc(C(F)(F)F)n3)nn2-c2ncccc2Cl)c(C)cc2ccnn12 [Compound 167, 6-(1-(3-chloropyridin-2-yl)-3-((5-(trifluoromethyl)-2H-tetrazol-2-yl)methyl)-1H-pyrazole-5-carboxamido)-N-ethyl-5-methylpyrazolo[1,5-a]pyridine-7-carboxamide]
> 70%: all assays above

CNC(=O)c1c(NC(=O)c2cc(Br)nn2-c2ncccc2Cl)c(C)cc2ccnn12 [Compound 1, 6-(3-bromo-1-(3-chloropyridin-2-yl)-1H-pyrazole-5-carboxamido)-N,5-dimethylpyrazolo[1,5-a]pyridine-7-carboxamide]
> 70%: all assays above

Cc1cc2ccnn2c(C(=O)NCC2CC2)c1NC(=O)c1cc(N2CC(F)(F)C2)nn1-c1ncccc1Cl [Compound 67, 6-(1-(3-chloropyridin-2-yl)-3-(3,3-difluoroazetidin-1-yl)-1H-pyrazole-5-carboxamido)-N-(cyclopropylmethyl)-5-methylpyrazolo[1,5-a]pyridine-7-carboxamide]
> 70%: all assays above

CCCCNC(=O)c1c(NC(=O)c2cc(Br)nn2-c2ncccc2Cl)c(Cl)cc2ccnn12 [Compound 139, 6-(3-bromo-1-(3-chloropyridin-2-yl)-1H-pyrazole-5-carboxamido)-N-butyl-5-chloropyrazolo[1,5-a]pyridine-7-carboxamide]
> 70%: all assays above

CONC(=O)c1c(NC(=O)c2cc(Br)nn2-c2ncccc2Cl)c(Br)cc2ccnn12 [Compound 87, 5-bromo-6-(3-bromo-1-(3-chloropyridin-2-yl)-1H-pyrazole-5-carboxamido)-N-methoxypyrazolo[1,5-a]pyridine-7-carboxamide]
> 70%: all assays above

Cc1cc2ccnn2c(C(=O)NC(C)(C)C)c1NC(=O)c1cc(OCC(F)(F)F)nn1-c1ncccc1Cl [Compound 19, N-(tert-butyl)-6-(1-(3-chloropyridin-2-yl)-3-(2,2,2-trifluoroethoxy)-1H-pyrazole-5-carboxamido)-5-methylpyrazolo[1,5-a]pyridine-7-carboxamide]
> 70%: all assays above

CNC(=O)c1c(NC(=O)c2cc(Cn3nnc(C(F)(F)F)n3)nn2-c2ncccc2Cl)c(C)cc2ccnn12 [Compound 166, 6-(1-(3-chloropyridin-2-yl)-3-((5-(trifluoromethyl)-2H-tetrazol-2-yl)methyl)-1H-pyrazole-5-carboxamido)-N,5-dimethylpyrazolo[1,5-a]pyridine-7-carboxamide]
> 70%: all assays above

CNC(=O)c1c(NC(=O)c2cc(OCC(F)(F)F)nn2-c2ncccc2Cl)c(C)cc2ccnn12 [Compound 9, 6-(1-(3-chloropyridin-2-yl)-3-(2,2,2-trifluoroethoxy)-1H-pyrazole-5-carboxamido)-N,5-dimethylpyrazolo[1,5-a]pyridine-7-carboxamide]
> 70%: all assays above
